{"source": "patent US4177199A", "about": "“Silver salts of phosphanilic acid” (Bristol-Myers Company, priority 1978, dated 1979)", "origin": "cited, not measured here", "key": {"[1]": {"settings": "laboratory animals"}, "[2]": {"settings": "laboratory animals", "remark": "listed apart in the source"}, "[3]": {"system": "experimental tuberculosis"}, "Histoplasma capsulatum": {"system": "Histoplasma capsulatum", "settings": "mouse, in vivo, iv"}, "[4]": {"system": "a variety of bacterial species"}, "S. typhosa": {"system": "S. typhosa", "settings": "mice infected with S. typhosa"}, "Ps. fluorescens": {"system": "Ps. fluorescens", "settings": "mice infected with Ps. fluorescens"}, "Plasmodium berghei": {"system": "Plasmodium berghei", "settings": "mice infected with Plasmodium berghei"}, "[5]": {"settings": "by admixture or salt formation"}}}
{"compound": "Nc1ccc(P(=O)(O)O)cc1", "note": "[phosphanilic acid]", "values": [{"measurement": "absorption", "setting": "[1]", "result": "poor"}, {"measurement": "toxicity", "setting": "[2]", "result": "low"}, {"measurement": "tubercularstatic activity in vitro", "setting": "tuberculosis", "result": "good"}, {"measurement": "effect in vivo against experimental tuberculosis", "setting": "[3]", "result": "no effect"}, {"measurement": "protective effect against Histoplasma capsulatum infection", "setting": "Histoplasma capsulatum", "result": "some protective effect"}, {"measurement": "in vitro activity among compounds tested", "setting": "[4]; aromatic phosphonic and phosphinic acids", "result": "generally the most active of the compounds tested"}, {"measurement": "activity compared with sulfathiazole", "setting": "[4]; molar basis", "result": "approached that of sulfathiazole"}, {"measurement": "efficacy in vivo in infected mice", "setting": "S. typhosa", "result": "effective"}, {"measurement": "efficacy in vivo in infected mice", "setting": "Ps. fluorescens", "result": "effective"}, {"measurement": "efficacy in vivo in infected mice", "setting": "Plasmodium berghei", "result": "effective"}, {"measurement": "potentiation of various tetracycline antibiotics", "setting": "[5]", "result": "potentiation"}]}
